In patent publication US20260207602A1, “EGFR INHIBITORS” (Blueprint Medicines Corporation, priority 2022, published 2026):

Legend:
[1] = target: intracellular phosphorylation of EGFR (Tyr1068) in PC-9 cells (Homo sapiens, UniProt P00533, DEL746-750); experiment: PC-9 pEGFR AlphaLISA assay; type: cell-based; conditions: 4 hours incubation, read-out: Phos EGFR PC9 IC50
Procedure, shortened: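 PC-9 cells (EGFR del746-750) in phenol-free DMEM/10% FBS, adhered overnight, then exposed to 10-point 4-fold compound dilutions for 4 h at 37 °C. Lysates assayed for pEGFR Tyr1068 by AlphaLISA SureFire Ultra; IC50 from percent pEGFR inhibition vs log concentration.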

EGFR L858R = target: T1, EGFR L858R (Homo sapiens, UniProt P00533, L858R); experiment: Biochemical EGFR inhibition assay (Caliper mobility shift), EGFR L858R; conditions: biochemical Caliper mobility shift assay, EGFR L858R enzyme; read-out: Enz EGFR L858R IC50
T1 construct: purchased SignalChem E10-122BG
Procedure, shortened: (§1)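 Apparent IC50 values come from Caliper electrophoretic separation of phosphorylated and unphosphorylated 5-FAM peptide (2.5 μM). ATP was either 1.0 mM or at Km; HEPES pH 7.5 buffer with MgCl2, DTT, 1% DMSO. Reactions ran at 25 °C until 10–20% phosphorylated, then EDTA quench.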

EGFR (d746-750) = target: T2, EGFR (d746-750) (Homo sapiens, UniProt P00533, DEL746-750); experiment: Biochemical EGFR inhibition assay (Caliper mobility shift), EGFR (d746-750); conditions: biochemical Caliper mobility shift assay, EGFR Exon 19-del enzyme; read-out: Enz EGFR Exon 19-del IC50
T2 construct: purchased SignalChem E10-122JG
Procedure, shortened: as §1

Sequence of intracellular phosphorylation of EGFR (Tyr1068) in PC-9 cells (P00533 with tags, fused parts or gaps DEL746-750): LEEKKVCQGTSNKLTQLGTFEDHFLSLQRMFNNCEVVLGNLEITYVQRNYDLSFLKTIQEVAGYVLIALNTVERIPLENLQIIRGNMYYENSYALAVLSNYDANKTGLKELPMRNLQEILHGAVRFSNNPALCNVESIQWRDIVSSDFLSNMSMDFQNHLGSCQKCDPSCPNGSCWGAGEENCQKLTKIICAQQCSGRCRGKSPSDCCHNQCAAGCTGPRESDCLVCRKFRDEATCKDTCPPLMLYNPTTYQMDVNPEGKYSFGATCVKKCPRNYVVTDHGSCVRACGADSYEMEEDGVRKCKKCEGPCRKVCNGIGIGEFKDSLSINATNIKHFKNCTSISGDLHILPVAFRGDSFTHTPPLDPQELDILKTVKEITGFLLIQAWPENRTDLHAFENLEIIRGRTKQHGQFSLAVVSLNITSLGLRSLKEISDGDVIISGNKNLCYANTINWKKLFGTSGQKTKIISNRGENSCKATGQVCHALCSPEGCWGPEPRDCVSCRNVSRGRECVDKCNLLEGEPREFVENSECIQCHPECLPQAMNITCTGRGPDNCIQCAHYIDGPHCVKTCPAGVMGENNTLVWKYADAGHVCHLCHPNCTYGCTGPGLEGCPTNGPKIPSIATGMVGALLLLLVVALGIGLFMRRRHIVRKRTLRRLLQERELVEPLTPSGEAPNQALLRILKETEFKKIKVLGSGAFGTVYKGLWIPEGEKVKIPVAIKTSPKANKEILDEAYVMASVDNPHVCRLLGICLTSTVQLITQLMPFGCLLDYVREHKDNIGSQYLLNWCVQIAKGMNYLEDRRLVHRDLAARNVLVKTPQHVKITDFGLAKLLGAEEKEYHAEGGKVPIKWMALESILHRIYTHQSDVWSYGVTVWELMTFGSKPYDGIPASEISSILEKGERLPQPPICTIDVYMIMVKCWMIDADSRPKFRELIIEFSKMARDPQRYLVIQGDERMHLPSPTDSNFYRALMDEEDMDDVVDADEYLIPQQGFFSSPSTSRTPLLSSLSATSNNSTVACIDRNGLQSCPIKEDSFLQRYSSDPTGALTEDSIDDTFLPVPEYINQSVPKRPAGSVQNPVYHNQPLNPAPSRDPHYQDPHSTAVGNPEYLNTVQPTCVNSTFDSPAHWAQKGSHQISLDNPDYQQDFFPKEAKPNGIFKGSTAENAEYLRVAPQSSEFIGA
T2 sequence (P00533 with tags, fused parts or gaps DEL746-750 limits assumed): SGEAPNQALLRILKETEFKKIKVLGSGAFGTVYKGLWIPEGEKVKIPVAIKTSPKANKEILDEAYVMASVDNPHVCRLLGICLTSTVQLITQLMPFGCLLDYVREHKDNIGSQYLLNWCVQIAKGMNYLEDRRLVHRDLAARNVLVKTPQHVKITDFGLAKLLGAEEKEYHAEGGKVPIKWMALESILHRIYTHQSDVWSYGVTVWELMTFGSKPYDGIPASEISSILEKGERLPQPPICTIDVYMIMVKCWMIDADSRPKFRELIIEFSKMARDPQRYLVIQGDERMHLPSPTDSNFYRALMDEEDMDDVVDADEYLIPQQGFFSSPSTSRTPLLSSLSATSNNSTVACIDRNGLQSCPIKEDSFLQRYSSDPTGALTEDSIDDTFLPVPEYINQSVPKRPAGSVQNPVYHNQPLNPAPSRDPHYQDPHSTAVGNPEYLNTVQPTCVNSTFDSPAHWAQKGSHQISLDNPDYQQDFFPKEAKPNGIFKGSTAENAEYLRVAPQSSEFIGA
T1 sequence (P00533 25-1210 L858R): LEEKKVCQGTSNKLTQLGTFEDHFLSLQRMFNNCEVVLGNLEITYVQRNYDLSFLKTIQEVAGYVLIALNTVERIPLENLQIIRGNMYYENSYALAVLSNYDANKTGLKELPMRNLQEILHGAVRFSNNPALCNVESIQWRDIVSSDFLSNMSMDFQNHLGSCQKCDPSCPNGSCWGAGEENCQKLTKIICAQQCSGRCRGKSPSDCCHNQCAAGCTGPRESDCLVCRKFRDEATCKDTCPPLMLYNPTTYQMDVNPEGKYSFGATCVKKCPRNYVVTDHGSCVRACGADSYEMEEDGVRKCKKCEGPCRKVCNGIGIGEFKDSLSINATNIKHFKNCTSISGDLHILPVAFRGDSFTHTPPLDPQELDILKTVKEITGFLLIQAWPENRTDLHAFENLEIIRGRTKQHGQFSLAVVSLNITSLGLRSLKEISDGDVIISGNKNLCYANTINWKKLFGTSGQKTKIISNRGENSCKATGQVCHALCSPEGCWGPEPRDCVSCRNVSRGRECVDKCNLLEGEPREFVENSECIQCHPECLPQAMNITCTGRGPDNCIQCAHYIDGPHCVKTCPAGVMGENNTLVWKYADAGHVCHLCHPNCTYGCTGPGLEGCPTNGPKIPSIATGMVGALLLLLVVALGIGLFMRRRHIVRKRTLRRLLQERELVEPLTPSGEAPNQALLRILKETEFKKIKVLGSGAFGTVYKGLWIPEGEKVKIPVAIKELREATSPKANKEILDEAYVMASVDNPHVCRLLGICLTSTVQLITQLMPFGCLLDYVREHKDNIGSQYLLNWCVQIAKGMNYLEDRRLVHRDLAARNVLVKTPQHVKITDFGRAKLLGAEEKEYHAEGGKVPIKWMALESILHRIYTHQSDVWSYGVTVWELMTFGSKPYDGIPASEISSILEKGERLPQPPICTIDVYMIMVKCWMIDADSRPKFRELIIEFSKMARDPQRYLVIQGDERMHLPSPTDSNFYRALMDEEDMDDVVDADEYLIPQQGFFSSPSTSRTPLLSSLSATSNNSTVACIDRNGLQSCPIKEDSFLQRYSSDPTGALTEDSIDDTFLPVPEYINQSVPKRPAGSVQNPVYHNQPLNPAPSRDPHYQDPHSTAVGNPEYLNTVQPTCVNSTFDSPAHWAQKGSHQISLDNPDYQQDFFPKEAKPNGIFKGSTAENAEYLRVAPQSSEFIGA

SMILES | IC50 [1] [nM] | IC50 (EGFR L858R) [nM] | IC50 (EGFR (d746-750)) [nM]
CN1CCC[C@H](Oc2cc(-c3cn(C)nc3OC(F)F)cc3ncnc(Nc4ccc5ncsc5c4)c23)C1 [Example 248, (S)-N-(7-(3-(difluoromethoxy)-1-methyl-1H-pyrazol-4-yl)-5-((1-methylpiperidin-3-yl)oxy)quinazolin-4-yl)benzo[d]thiazol-6-amine] | 10.1 to 50 | 10.1 to 50 | ≤ 10
C[C@H](CN(C)C)Oc1cc(N2CC3CC(C2)O3)cc2ncnc(Nc3ccc4ncsc4c3F)c12 [Example 176, N-(7-(6-oxa-3-azabicyclo[3.1.1]heptan-3-yl)-5-(((R)-1-(dimethylamino)propan-2-yl)oxy)quinazolin-4-yl)-7-fluorobenzo[d]thiazol-6-amine] | ≤ 10 | 10.1 to 50 | ≤ 10
COCCN1CCN(c2cc(O[C@H](C)COC)c3c(Nc4ccc5ncsc5c4)ncnc3c2)CC1 [Example 201, (R)-N-(7-(4-(2-methoxyethyl)piperazin-1-yl)-5-((1-methoxypropan-2-yl)oxy)quinazolin-4-yl)benzo[d]thiazol-6-amine] | 10.1 to 50 | ≤ 10 | ≤ 10
COCCOc1cc(O[C@H](C)C2COC2)c2c(Nc3ccc4ncsc4c3F)ncnc2c1 (single isomer, unassigned) [Example 84] | ≤ 10 | ≤ 10 | ≤ 10
C[C@@H]1CN(c2cc(O[C@H](C)C3COC3)c3c(Nc4ccc5ncsc5c4)ncnc3c2)C[C@H](C)O1 [Example 193, N-(7-((2S,6R)-2,6-dimethylmorpholino)-5-((R)-1-(oxetan-3-yl)ethoxy)quinazolin-4-yl)benzo[d]thiazol-6-amine] | ≤ 10 | ≤ 10 | ≤ 10
Cn1cc(-c2cc(O[C@H]3COC[C@H]3F)c3c(Nc4ccc5ncsc5c4)ncnc3c2)cn1 (racemic) [Example A10, N-(5-(((3S,4R)-4-fluorotetrahydrofuran-3-yl)oxy)-7-(1-methyl-1H-pyrazol-4-yl)quinazolin-4-yl)benzo[d]thiazol-6-amine] | ≤ 10 | ≤ 10 | ≤ 10
COc1nn(C)cc1-c1cc(O[C@H]2CCCN(C)C2)c2c(Nc3ccc4ncsc4c3)ncnc2c1 [Example 12, (S)-N-(7-(3-methoxy-1-methyl-1H-pyrazol-4-yl)-5-((1-methylpiperidin-3-yl)oxy)quinazolin-4-yl)benzo[d]thiazol-6-amine] | ≤ 10 | ≤ 10 | ≤ 10
C[C@@H](Oc1cc(-c2cnn(C)c2)cc2ncnc(Nc3ccc4ncsc4c3)c12)[C@H]1CN(C)CCO1 (single isomer, unassigned) [Example 209] | ≤ 10 | ≤ 10 | ≤ 10
C[C@H](CN(C)C)Oc1cc(-c2cnn(C)c2)cc2ncnc(Nc3ccc4ncsc4c3F)c12 [Example 140, (R)-N-(5-((1-(dimethylamino)propan-2-yl)oxy)-7-(1-methyl-1H-pyrazol-4-yl)quinazolin-4-yl)-7-fluorobenzo[d]thiazol-6-amine] | ≤ 10 | ≤ 10 | ≤ 10
CN(C)C[C@H](Oc1cc(-c2cnn(C)c2)cc2ncnc(Nc3ccc4ncsc4c3)c12)C(F)(F)F (single isomer, unassigned) [Example 179] | > 50.1 | > 50.1 | 10.1 to 50
Cn1cc(-c2cc(O[C@H]3CCCN(C4COC4)C3)c3c(Nc4ccc5ncsc5c4)ncnc3c2)cn1 [Example 317, (S)-N-(7-(1-methyl-1H-pyrazol-4-yl)-5-((1-(oxetan-3-yl)piperidin-3-yl)oxy)quinazolin-4-yl)benzo[d]thiazol-6-amine] | ≤ 10 | ≤ 10 | ≤ 10
COc1cn(C)nc1-c1cc(O[C@H](C)C2COC2)c2c(Nc3ccc4ncsc4c3F)ncnc2c1 (single isomer, unassigned) [Example 81] | 10.1 to 50 | ≤ 10 | ≤ 10
